The source made the active and inactive calls. The calls are words filed in the database; no cut-off is given here.
Experiments:
[1] = target: T1, von Hippel-Lindau disease tumor suppressor (Homo sapiens, UniProt P40337); assay: Inhibition of N-terminal 6his tagged human VHL (1 to 213 residues) expressed in HEK293 cells using NanoBRET NanoGlo substrate by NanoBRET assay; format: cell-based
[2] = target: T2, von Hippel-Lindau disease tumor suppressor/Androgen receptor (Homo sapiens) (UniProt P10275+P40337); assay: PROTAC activity at VHL/HiBit tagged AR in human LNCaP cells assessed as degradation of AR preincubated with epoxomicin for 3 hrs followed by compound addition and measured after 18 hrs by Nano-Glo HiBiT assay; format: cell-based
[3] = target: T2, von Hippel-Lindau disease tumor suppressor/Androgen receptor (Homo sapiens); assay: PROTAC activity at VHL/HiBit tagged AR in human LNCaP cells assessed as degradation of AR preincubated with MLN4924 for 3 hrs followed by compound addition and measured after 18 hrs by Nano-Glo HiBiT assay; format: cell-based
LNCaP = assay: Cytotoxicity against human LNCaP cells harbouring HiBit tagged AR assessed as reduction in cell viability measured after 16 hrs by cell titer glo assay; format: functional, cell-based
[4] = target: T1, von Hippel-Lindau disease tumor suppressor; assay: Inhibition of VHL in HEK293T cells assessed as target engagement incubated for 2 hrs by Streptavidin-pull down blotting assay; format: cell-based; conditions: dose 1-100 µM
[5] = target: T3, von Hippel-Lindau disease tumor suppressor/Bromodomain-containing protein 4 (Homo sapiens, UniProt O60885+P40337); assay: PROTAC activity at HiBit tagged BRD4/VHL E3 ligase in human HEK293 cells assessed as degradation of BRD4 preincubated with epoxomicin for 3 hrs followed by compound addition and measured after 18 hrs by Nano-Glo HiBiT assay; format: cell-based
HEK293 = assay: Cytotoxicity against human HEK293 cells harbouring HiBit tagged BRD4 assessed as reduction in cell viability measured after 18 hrs by cell titer glo assay; format: toxicity, cell-based; conditions: hek293, 18 h
[6] = target: T3, von Hippel-Lindau disease tumor suppressor/Bromodomain-containing protein 4; assay: PROTAC activity at HiBit tagged BRD4/VHL E3 ligase in human HEK293 cells assessed as degradation of BRD4 incubated for 18 hrs by Nano-Glo HiBiT assay; format: cell-based
[7] = target: T3, von Hippel-Lindau disease tumor suppressor/Bromodomain-containing protein 4; assay: PROTAC activity at HiBit tagged BRD4/VHL E3 ligase in human HEK293 cells assessed as degradation of BRD4 preincubated with MLN4924 for 3 hrs followed by compound addition and measured after 18 hrs by Nano-Glo HiBiT assay; format: cell-based

| SMILES | Activity [2] | Activity [3] | Activity (LNCaP) | further results |
| --- | --- | --- | --- | --- |
| CC(=O)N[C@H](C(=O)N1C[C@H](S(=O)(=O)F)C[C@H]1C(=O)NCc1ccc(-c2scnc2C)cc1)C(C)(C)C |  |  |  | IC50 [1]: > 100 µM |
| Cc1cc([C@H](C(=O)N2C[C@H](S(=O)(=O)F)C[C@H]2C(=O)N[C@@H](CC(=O)N2CCC(C#Cc3ccc(C(=O)N[C@H]4C(C)(C)[C@H](Oc5ccc(C#N)c(C(F)(F)F)c5)C4(C)C)cc3)CC2)c2ccc(-c3scnc3C)cc2)C(C)C)on1 | inactive | inactive | inactive |  |
| Cc1cc([C@H](C(=O)N2C[C@H](S(=O)(=O)F)C[C@H]2C(=O)N[C@@H](CC(=O)NCCOCCOCCOCCNC(=O)CCCC[C@H]2SC[C@@H]3NC(=O)N[C@@H]32)c2ccc(-c3scnc3C)cc2)C(C)C)on1 |  |  |  | inhibition [4]: Dose-Dependent Effect |
| Cc1cc([C@H](C(=O)N2C[C@H](S(=O)(=O)F)C[C@H]2C(=O)N[C@@H](CC(=O)N2CCC(C#Cc3ccc(C(=O)N[C@H]4C(C)(C)[C@H](Oc5ccc(C#N)c(Cl)c5)C4(C)C)cc3)CC2)c2ccc(-c3scnc3C)cc2)C(C)C)on1 | inactive | inactive | inactive |  |
| COCC(COC)n1c(-c2cc(C)c(=O)n(C)c2)nc2cc(C3CCN(C(=O)COCCOCCOCCNC(=O)C[C@H](NC(=O)[C@@H]4C[C@@H](S(=O)(=O)F)CN4C(=O)[C@@H](c4cc(C)no4)C(C)C)c4ccc(-c5scnc5C)cc4)CC3)ccc21 |  |  |  | Activity [5]: inactive; Activity (HEK293): Non-Toxic; EC50 [6]: 17.2 µM; Activity [7]: inactive |

— ChEMBL document CHEMBL5620436, “Structure-Guided Design and Optimization of Covalent VHL-Targeted Sulfonyl Fluoride PROTACs” (J Med Chem, 2024)
